We go through one molecule from PMC8439242, “Pharmacokinetic study on the interaction between pachymic acid and bavachin and its potential mechanism” (Pharmaceutical Biology, 2021).

The structures appear in SMILES notation.

In the assay the test system is T1, CYP2C9.
T1 construct: gene Cyp2c11; 'CYP2C9' is the human name, rat has no CYP2C9, rat Cyp2c forms turn over the diclofenac probe
The assay can be described thus: diclofenac probe turnover in rat liver microsomes, LC-MS/MS. The class given is biochemical. The note with it: 50 μM diclofenac; 0.5 mg/mL microsomal protein; 30 min incubation; 0-100 μM inhibitor.

As usually defined, the IC50 is the point on the concentration scale where inhibition reaches its midpoint. High values mean weaker potency in that assay, low ones greater potency in that assay. For `C=C(CC[C@@H](C(=O)O)[C@H]1[C@H](O)C[C@@]2(C)C3=C(CC[C@]12C)[C@@]1(C)CC[C@H](OC(C)=O)C(C)(C)[C@@H]1CC3)C(C)C` [pachymic acid], inhibition was half-maximal at 21.2 µM (IC50).
